Here are results for ten compounds from ChEMBL document CHEMBL3297661, “1-Substituted-5-[(3,5-dinitrobenzyl)sulfanyl]-1H-tetrazoles and their isosteric analogs: A new class of selective antitubercular agents active against drug-susceptible and multidrug-resistant mycobacteria” (Eur J Med Chem, 2014).

≈ marks a conversion by molar mass, not a printed value.

In general, MIC refers to the lowest concentration found to suppress growth. A low value points to a more susceptible organism.

What all share (type): functional
Assay [1] has as its system Mycobacterium kansasii. Nature of the assay: Antimycobacterial activity against Mycobacterium kansasii CNCTC My 235/80 after 14 days by micromethod. The settings on record: CNCTC My 235/80, 336 h.
Assay [2] concerns Mycobacterium avium. Description: Antimycobacterial activity against Mycobacterium avium CNCTC My 330/88 after 21 days by micromethod. The note with it: CNCTC My 330/88, 504 h.
Assay [3] relates to Mycobacterium kansasii. Nature of the assay: Antimycobacterial activity against Mycobacterium kansasii CNCTC My 235/80 after 7 days by micromethod. The settings on record: CNCTC My 235/80, 168 h.
Assay [4] concerns Mycobacterium tuberculosis. Nature of the assay: Antimycobacterial activity against Mycobacterium tuberculosis CNCTC My 331/88 after 21 days by micromethod. The settings on record: CNCTC My 331/88, 504 h.
Assay [5] relates to Mycobacterium kansasii. Nature of the assay: Antimycobacterial activity against Mycobacterium kansasii CNCTC My 235/80 after 21 days by micromethod. The settings on record: CNCTC My 235/80, 504 h.
In assay [6] the test system is Mycobacterium avium. Description: Antimycobacterial activity against Mycobacterium avium CNCTC My 330/88 after 14 days by micromethod. The note with it: CNCTC My 330/88, 336 h.
Assay [7] concerns Mycobacterium kansasii. Nature of the assay: Antimycobacterial activity against Mycobacterium kansasii 6509/96 after 7 days by micromethod. The note with it: 6509/96, 168 h.
Assay [8] deals with Mycobacterium kansasii. Description: Antimycobacterial activity against Mycobacterium kansasii 6509/96 after 21 days by micromethod. The note with it: 6509/96, 504 h.
Assay [9] has as its system Mycobacterium kansasii. Description: Antimycobacterial activity against Mycobacterium kansasii 6509/96 after 14 days by micromethod. The note with it: 6509/96, 336 h.
The test system of assay [10] is Mycobacterium tuberculosis. Nature of the assay: Antimycobacterial activity against Mycobacterium tuberculosis CNCTC My 331/88 after 14 days by micromethod. The settings on record: CNCTC My 331/88, 336 h.

As for `c1ccc(C[Se]c2nnnn2C2CCCCC2)cc1`, the MIC came out at 32 µM (≈ 10.3 µg/mL) against Mycobacterium kansasii [1]; 125 µM (≈ 40.2 µg/mL) against Mycobacterium avium [2]; 8 µM (≈ 2.57 µg/mL) in the assay with Mycobacterium kansasii [3]; 125 µM (≈ 40.2 µg/mL) in assay [4]; 32 µM (≈ 10.3 µg/mL) against Mycobacterium kansasii [5]; 125 µM (≈ 40.2 µg/mL) with Mycobacterium avium [6]. Besides, the MIC with Mycobacterium kansasii [7] was found to be 62 µM (≈ 19.9 µg/mL); in the assay on Mycobacterium kansasii [8], 500 µM (≈ 161 µg/mL); against Mycobacterium kansasii [9] it was 250 µM (≈ 80.3 µg/mL); in [10], 125 µM (≈ 40.2 µg/mL).

Regarding `COc1cccc(-n2nnnc2SCc2cc([N+](=O)[O-])cc([N+](=O)[O-])c2)c1`, the minimum inhibitory concentration (MIC) against Mycobacterium kansasii [1] worked out at 125 µM (≈ 48.5 µg/mL); against Mycobacterium avium [2], 125 µM (≈ 48.5 µg/mL); with Mycobacterium kansasii [3], 125 µM (≈ 48.5 µg/mL); in [4], 4 µM (≈ 1.55 µg/mL); against Mycobacterium kansasii [5], 125 µM (≈ 48.5 µg/mL); with Mycobacterium avium [6], 125 µM (≈ 48.5 µg/mL). For the same compound, the MIC against Mycobacterium kansasii [7] worked out at 125 µM (≈ 48.5 µg/mL); in the assay with Mycobacterium kansasii [8], 125 µM (≈ 48.5 µg/mL); in the assay on Mycobacterium kansasii [9], 125 µM (≈ 48.5 µg/mL); in assay [10], 2 µM (≈ 0.777 µg/mL).

Turning to `COc1ccc(-n2nnnc2SCc2ccc([N+](=O)[O-])cc2[N+](=O)[O-])cc1`, the MIC is 62 µM (≈ 24.1 µg/mL) in the assay on Mycobacterium kansasii [1]; 62 µM (≈ 24.1 µg/mL) with Mycobacterium avium [2]; 32 µM (≈ 12.4 µg/mL) against Mycobacterium kansasii [3]; 8 µM (≈ 3.11 µg/mL) in [4]; 62 µM (≈ 24.1 µg/mL) against Mycobacterium kansasii [5]; 62 µM (≈ 24.1 µg/mL) against Mycobacterium avium [6]. Also, the MIC with Mycobacterium kansasii [7] turned out to be 8 µM (≈ 3.11 µg/mL); in the assay on Mycobacterium kansasii [8] it was 32 µM (≈ 12.4 µg/mL); in the assay with Mycobacterium kansasii [9] it was 16 µM (≈ 6.21 µg/mL); in assay [10], 8 µM (≈ 3.11 µg/mL).

On to `O=[N+]([O-])c1ccc(CSc2nnnn2-c2ccc([N+](=O)[O-])cc2)cc1`, for which the MIC (in the assay with Mycobacterium kansasii [1]; in the assay on Mycobacterium avium [2]; in the assay with Mycobacterium kansasii [3]; in [4]; with Mycobacterium kansasii [5]; in the assay on Mycobacterium avium [6]) was 250 µM (≈ 89.6 µg/mL) throughout. Further, the MIC (against Mycobacterium kansasii [7]; with Mycobacterium kansasii [8]; against Mycobacterium kansasii [9]; in [10]) was 250 µM (≈ 89.6 µg/mL) in each case.

For the compound `COc1ccc(-n2nnnc2SCc2cc(N)cc([N+](=O)[O-])c2)cc1`, the MIC (against Mycobacterium kansasii [1]; with Mycobacterium avium [2]; in the assay on Mycobacterium kansasii [3]; in [4]; in the assay with Mycobacterium kansasii [5]; in the assay with Mycobacterium avium [6]) was 250 µM (≈ 89.6 µg/mL) in each case. Besides, the MIC (in the assay with Mycobacterium kansasii [7]; against Mycobacterium kansasii [8]; with Mycobacterium kansasii [9]; in assay [10]) was 250 µM (≈ 89.6 µg/mL) throughout.

For the compound `N#CSCc1cc([N+](=O)[O-])cc([N+](=O)[O-])c1`, the MIC is 8 µM (≈ 1.91 µg/mL) with Mycobacterium kansasii [1]; 62 µM (≈ 14.8 µg/mL) against Mycobacterium avium [2]; 2 µM (≈ 0.478 µg/mL) against Mycobacterium kansasii [3]; 4 µM (≈ 0.957 µg/mL) in assay [4]; 16 µM (≈ 3.83 µg/mL) with Mycobacterium kansasii [5]; 32 µM (≈ 7.65 µg/mL) in the assay on Mycobacterium avium [6]. The minimum inhibitory concentration (MIC) in the assay with Mycobacterium kansasii [7] stood at 4 µM (≈ 0.957 µg/mL); with Mycobacterium kansasii [8] it was 16 µM (≈ 3.83 µg/mL); in the assay with Mycobacterium kansasii [9], 8 µM (≈ 1.91 µg/mL); in assay [10], 4 µM (≈ 0.957 µg/mL).

Regarding `COC(=O)c1cccc(-n2nnnc2SCc2cc([N+](=O)[O-])cc([N+](=O)[O-])c2)c1`, the MIC came out at 500 µM (≈ 208 µg/mL) in the assay with Mycobacterium kansasii [1]; 250 µM (≈ 104 µg/mL) against Mycobacterium avium [2]; 500 µM (≈ 208 µg/mL) with Mycobacterium kansasii [3]; 16 µM (≈ 6.66 µg/mL) in assay [4]; 500 µM (≈ 208 µg/mL) with Mycobacterium kansasii [5]; 250 µM (≈ 104 µg/mL) in the assay on Mycobacterium avium [6]. The MIC against Mycobacterium kansasii [7] is 500 µM (≈ 208 µg/mL); against Mycobacterium kansasii [8], 500 µM (≈ 208 µg/mL); against Mycobacterium kansasii [9] it was 500 µM (≈ 208 µg/mL); in assay [10] it was 8 µM (≈ 3.33 µg/mL).

As for `COc1ccccc1-n1nnnc1SCc1cc([N+](=O)[O-])cc([N+](=O)[O-])c1`, the MIC (in the assay on Mycobacterium kansasii [1]; in the assay with Mycobacterium avium [2]; in the assay on Mycobacterium kansasii [3]; in assay [4]; with Mycobacterium kansasii [5]; in the assay with Mycobacterium avium [6]) was 125 µM (≈ 48.5 µg/mL) in each case. The MIC (in the assay on Mycobacterium kansasii [7]; in the assay on Mycobacterium kansasii [8]; in the assay with Mycobacterium kansasii [9]; in [10]) was 125 µM (≈ 48.5 µg/mL) throughout.

For `O=[N+]([O-])c1cc(CSc2nnnn2-c2ccc(F)cc2)cc([N+](=O)[O-])c1`, the MIC in the assay with Mycobacterium kansasii [1] was 4 µM (≈ 1.51 µg/mL); in the assay with Mycobacterium avium [2] it was 250 µM (≈ 94.1 µg/mL); against Mycobacterium kansasii [3], 2 µM (≈ 0.753 µg/mL); in [4] it was 2 µM (≈ 0.753 µg/mL); against Mycobacterium kansasii [5] it was 4 µM (≈ 1.51 µg/mL); against Mycobacterium avium [6] it was 250 µM (≈ 94.1 µg/mL). Moreover, the MIC in the assay on Mycobacterium kansasii [7] stood at 4 µM (≈ 1.51 µg/mL); with Mycobacterium kansasii [8], 16 µM (≈ 6.02 µg/mL); in the assay on Mycobacterium kansasii [9] it was 8 µM (≈ 3.01 µg/mL); in assay [10] it was 2 µM (≈ 0.753 µg/mL).

Take `O=[N+]([O-])c1ccc(-n2nnnc2SCc2ccccc2)cc1`: the minimum inhibitory concentration (MIC) worked out at 32 µM (≈ 10 µg/mL) in the assay with Mycobacterium kansasii [1]; 62 µM (≈ 19.4 µg/mL) against Mycobacterium avium [2]; 16 µM (≈ 5.01 µg/mL) against Mycobacterium kansasii [3]; 125 µM (≈ 39.2 µg/mL) in assay [4]; 32 µM (≈ 10 µg/mL) in the assay on Mycobacterium kansasii [5]; 62 µM (≈ 19.4 µg/mL) in the assay with Mycobacterium avium [6]. Also, the minimum inhibitory concentration (MIC) in the assay on Mycobacterium kansasii [7] is 16 µM (≈ 5.01 µg/mL); with Mycobacterium kansasii [8], 62 µM (≈ 19.4 µg/mL); with Mycobacterium kansasii [9] it was 62 µM (≈ 19.4 µg/mL); in assay [10] it was 125 µM (≈ 39.2 µg/mL).
